Source: PubChem BioAssay (NCI)
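GI50 = concentration required for 50% inhibition of growth. TGI denotes the concentration required for complete inhibition of growth.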

Experiments:
Assay in all cases: NCI anticancer screen, dose series, 384-well format
EKVX NSCLC = tested on: EKVX NSCLC
SW-620 colon = tested on: SW-620 colon
ACHN renal = tested on: ACHN renal
A498 renal = tested on: A498 renal
MCF7 breast = tested on: MCF7 breast
RPMI-8226 leukemia = tested on: RPMI-8226 leukemia
LOX IMVI melanoma = tested on: LOX IMVI melanoma
K-562 leukemia = tested on: K-562 leukemia
SK-MEL-28 melanoma = tested on: SK-MEL-28 melanoma
CAKI-1 renal = tested on: CAKI-1 renal
SF-539 CNS = tested on: SF-539 CNS
TK-10 renal = tested on: TK-10 renal
UACC-257 melanoma = tested on: UACC-257 melanoma
HS 578T breast = tested on: HS 578T breast
HCT-15 colon = tested on: HCT-15 colon
U251 glioblastoma = tested on: U251 glioblastoma
SF-295 CNS = tested on: SF-295 CNS
UO-31 renal = tested on: UO-31 renal
SK-MEL-5 melanoma = tested on: SK-MEL-5 melanoma
CCRF-CEM leukemia = tested on: CCRF-CEM leukemia
OVCAR-8 ovarian = tested on: OVCAR-8 ovarian
RXF 393 renal = tested on: RXF 393 renal
T-47D breast = tested on: T-47D breast
BT-549 breast = tested on: BT-549 breast
786-0 renal = tested on: 786-0 renal
SK-MEL-2 melanoma = tested on: SK-MEL-2 melanoma
NCI-H460 NSCLC = tested on: NCI-H460 NSCLC
NCI-H23 lung = tested on: NCI-H23 lung
HCC-2998 colon = tested on: HCC-2998 colon
HL-60(TB) leukemia = tested on: HL-60(TB) leukemia
OVCAR-3 ovarian = tested on: OVCAR-3 ovarian
M14 melanoma = tested on: M14 melanoma
MDA-MB-468 breast = tested on: MDA-MB-468 breast
DU-145 prostate = tested on: DU-145 prostate
COLO 205 colon = tested on: COLO 205 colon
HCT-116 colon = tested on: HCT-116 colon
HOP-62 NSCLC = tested on: HOP-62 NSCLC
NCI/ADR-RES ovarian = tested on: NCI/ADR-RES ovarian
NCI-H322M lung = tested on: NCI-H322M lung
UACC-62 melanoma = tested on: UACC-62 melanoma
KM12 colon = tested on: KM12 colon
SR leukemia = tested on: SR leukemia
OVCAR-4 ovarian = tested on: OVCAR-4 ovarian
NCI-H226 lung = tested on: NCI-H226 lung
HOP-92 NSCLC = tested on: HOP-92 NSCLC
OVCAR-5 ovarian = tested on: OVCAR-5 ovarian
MDA-MB-231 breast = tested on: MDA-MB-231 breast

For `C=CCN(/C=C1\C(=O)O[C@H](COC)[C@@]2(C)C1=C(O)C(=O)C1=C2[C@H](OC(C)=O)C[C@]2(C)C(=O)CC[C@@H]12)CC=C`, the GI50 (EKVX NSCLC) was 0.504 µM, the TGI (EKVX NSCLC) was 13.6 µM and the GI50 (SW-620 colon) was 7.45 µM. The TGI (SW-620 colon) was > 100 µM, the GI50 (ACHN renal) was 4.71 µM and the TGI (ACHN renal) was > 100 µM. For the same compound, the GI50 (A498 renal) was 0.39 µM, the TGI (A498 renal) was 5.3 µM and the GI50 (MCF7 breast) was 0.441 µM. It also gave a TGI (MCF7 breast) of 19.4 µM, a GI50 (RPMI-8226 leukemia) of 0.657 µM and a TGI (RPMI-8226 leukemia) of 3.16 µM. The GI50 (LOX IMVI melanoma) was 5.49 µM, the TGI (LOX IMVI melanoma) was 39.1 µM and the GI50 (K-562 leukemia) was 17.6 µM. The TGI (K-562 leukemia) was > 100 µM, the GI50 (SK-MEL-28 melanoma) was 1.59 µM and the TGI (SK-MEL-28 melanoma) was 19.7 µM. The GI50 (CAKI-1 renal) was 2.75 µM, the TGI (CAKI-1 renal) was > 100 µM and the GI50 (SF-539 CNS) was 7.45 µM. For the same compound, the TGI (SF-539 CNS) was > 100 µM, the GI50 (TK-10 renal) was 1.19 µM and the TGI (TK-10 renal) was 15.2 µM. The GI50 (UACC-257 melanoma) was 4.01 µM, the TGI (UACC-257 melanoma) was 43.9 µM and the GI50 (HS 578T breast) was 1.15 µM. It also gave a TGI (HS 578T breast) of 6.93 µM, a GI50 (HCT-15 colon) of 2.98 µM and a TGI (HCT-15 colon) of 97.2 µM. It also gave a GI50 (U251 glioblastoma) of 13 µM, a TGI (U251 glioblastoma) of 82.7 µM and a GI50 (SF-295 CNS) of 2.12 µM. The TGI (SF-295 CNS) was 18.7 µM, the GI50 (UO-31 renal) was 2.81 µM and the TGI (UO-31 renal) was > 100 µM. For the same compound, the GI50 (SK-MEL-5 melanoma) was 2.96 µM, the TGI (SK-MEL-5 melanoma) was 14.7 µM and the GI50 (CCRF-CEM leukemia) was 0.723 µM. For the same compound, the TGI (CCRF-CEM leukemia) was 4.53 µM, the GI50 (OVCAR-8 ovarian) was 3.85 µM and the TGI (OVCAR-8 ovarian) was > 100 µM. The GI50 (RXF 393 renal) was 0.0828 µM, the TGI (RXF 393 renal) was 0.65 µM and the GI50 (T-47D breast) was 0.724 µM. It also gave a TGI (T-47D breast) of 10.2 µM, a GI50 (BT-549 breast) of 0.553 µM and a TGI (BT-549 breast) of 9.02 µM. The GI50 ([…]-0 renal) was 4.45 µM, the TGI (786-0 renal) was 28.5 µM and the GI50 (SK-MEL-2 melanoma) was 2.36 µM. It also gave a TGI (SK-MEL-2 melanoma) of 12.3 µM, a GI50 (NCI-H460 NSCLC) of 0.668 µM and a TGI (NCI-H460 NSCLC) of 90.1 µM. The GI50 (NCI-H23 lung) was 4.35 µM, the TGI (NCI-H23 lung) was 33.8 µM and the GI50 (HCC-2998 colon) was 0.671 µM. The TGI (HCC-2998 colon) was 6.09 µM, the GI50 (HL-60(TB) leukemia) was 0.156 µM and the TGI (HL-60(TB) leukemia) was 0.983 µM. It also gave a GI50 (OVCAR-3 ovarian) of 1.16 µM, a TGI (OVCAR-3 ovarian) of 12.2 µM and a GI50 (M14 melanoma) of 2.82 µM. It also gave a TGI (M14 melanoma) of 30.5 µM, a GI50 (MDA-MB-468 breast) of 0.0764 µM and a TGI (MDA-MB-468 breast) of 2.09 µM. It also gave a GI50 (DU-145 prostate) of 4.41 µM, a TGI (DU-145 prostate) of 59.7 µM and a GI50 (COLO 205 colon) of 0.793 µM. For the same compound, the TGI (COLO 205 colon) was 4.64 µM, the GI50 (HCT-116 colon) was 4.61 µM and the TGI (HCT-116 colon) was 31.4 µM. For the same compound, the GI50 (HOP-62 NSCLC) was 10.3 µM, the TGI (HOP-62 NSCLC) was > 100 µM and the GI50 (NCI/ADR-RES ovarian) was 8.83 µM. For the same compound, the TGI (NCI/ADR-RES ovarian) was > 100 µM, the GI50 (NCI-H322M lung) was 1.21 µM and the TGI (NCI-H322M lung) was 23.3 µM. For the same compound, the GI50 (UACC-62 melanoma) was 0.89 µM, the TGI (UACC-62 melanoma) was 8.77 µM and the GI50 (KM12 colon) was 2.66 µM. For the same compound, the TGI (KM12 colon) was 96.3 µM, the GI50 (SR leukemia) was 1.22 µM and the TGI (SR leukemia) was 2.51 µM. It also gave a GI50 (OVCAR-4 ovarian) of 0.787 µM, a TGI (OVCAR-4 ovarian) of 33.5 µM and a GI50 (NCI-H226 lung) of 2.76 µM. For the same compound, the TGI (NCI-H226 lung) was 56.7 µM, the GI50 (HOP-92 NSCLC) was 2.47 µM and the TGI (HOP-92 NSCLC) was 37.6 µM. It also gave a GI50 (OVCAR-5 ovarian) of 3.62 µM, a TGI (OVCAR-5 ovarian) of 42.9 µM and a GI50 (MDA-MB-231 breast) of 3.68 µM. The TGI (MDA-MB-231 breast) was > 100 µM.
